We go through one compound from ChEMBL document CHEMBL6096661, “Synthesis, biological evaluation and mechanism study of a novel indole-pyridine chalcone derivative as antiproliferative agent against tumor cells through dual targeting tubulin and HK2” (Eur J Med Chem, 2025).

The target of series [1] is T1, Hexokinase-2 (Homo sapiens) (UniProt P52789).
T1 sequence (whole entry): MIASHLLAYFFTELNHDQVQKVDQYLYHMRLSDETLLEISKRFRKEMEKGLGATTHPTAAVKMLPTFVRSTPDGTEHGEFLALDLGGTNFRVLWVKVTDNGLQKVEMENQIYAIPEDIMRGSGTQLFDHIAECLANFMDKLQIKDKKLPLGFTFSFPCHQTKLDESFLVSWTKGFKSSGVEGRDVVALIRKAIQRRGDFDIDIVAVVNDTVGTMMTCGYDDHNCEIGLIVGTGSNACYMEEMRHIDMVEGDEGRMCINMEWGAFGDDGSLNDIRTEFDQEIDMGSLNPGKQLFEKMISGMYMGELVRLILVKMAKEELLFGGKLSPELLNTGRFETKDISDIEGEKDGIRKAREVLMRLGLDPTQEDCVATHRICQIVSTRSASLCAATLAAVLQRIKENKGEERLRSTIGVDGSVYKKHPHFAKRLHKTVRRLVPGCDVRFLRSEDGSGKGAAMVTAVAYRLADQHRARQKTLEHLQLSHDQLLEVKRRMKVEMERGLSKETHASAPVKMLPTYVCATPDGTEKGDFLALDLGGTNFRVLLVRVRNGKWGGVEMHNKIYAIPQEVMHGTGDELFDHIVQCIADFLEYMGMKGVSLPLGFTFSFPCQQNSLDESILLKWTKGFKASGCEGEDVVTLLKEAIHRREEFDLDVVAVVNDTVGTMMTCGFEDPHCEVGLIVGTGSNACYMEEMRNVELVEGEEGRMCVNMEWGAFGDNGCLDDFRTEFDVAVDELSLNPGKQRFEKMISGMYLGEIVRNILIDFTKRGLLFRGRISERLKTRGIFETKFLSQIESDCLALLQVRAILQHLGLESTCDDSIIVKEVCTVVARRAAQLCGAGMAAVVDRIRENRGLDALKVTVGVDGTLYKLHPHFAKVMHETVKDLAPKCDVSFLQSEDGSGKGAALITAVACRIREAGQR
The series can be described thus: Binding affinity to human HK2 transfected in Escherichia coli BL21 (DE) assessed as HK2 stabilization at 4 uM at 37 to 55 degreeC incubated for 10 to 30 mins by CETSA. As to conditions: time 10-30 min.

Series [2] has as its target T2, Hexokinase-2 (Homo sapiens, UniProt P52789).
T2 sequence (P52789 whole entry): T1 sequence (whole entry)
The series can be described thus: Inhibition of human HK2 transfected in Escherichia coli BL21 (DE) incubated for 10 mins.

Series [3] has as its system MDA-MB-231. The series can be described thus: Induction of apoptosis in human MDA-MB-231 cells assessed as fragmented bright nuclei at 0.5 to 2 uM incubated for 24 hrs by Hoechst 33342 staining based fluorescence microscopic analysis. The format is functional, cell-based. To be noted: dose 0.5-2 µM.
Series [4] deals with T3, Tubulin (Homo sapiens) (UniProt P68371+Q9H4B7+P0DPH7+P68366+Q13509+Q71U36+P04350+Q3ZCM7+P07437+P68363+Q9BQE3+Q6PEY2+Q13885+Q9BVA1+Q9BUF5). Briefly: Disruption of microtubule network in human MDA-MB-231 cells assessed as point-like fiber structure at 1 to 2 uM incubated for 24 hrs by DAPI staining based fluorescence microscopic analysis. In kind it is cell-based. As to conditions: dose 1-2 µM.

Series [5] concerns MDA-MB-231. Briefly: Antiproliferative activity against human MDA-MB-231 cells assessed as inhibition of cell proliferation incubated for 1 day by CCK-8 assay. The format is functional, cell-based. As to conditions: MDA-MB-231, 24 h.
In series [6] the test system is MDA-MB-231. Briefly: Induction of apoptosis in human MDA-MB-231 cells assessed as increase in total apoptotic cells at 0.5 to 2 uM by annexin-V/PI double staining based flow cytometric analysis. In kind it is functional, cell-based. To be noted: dose 0.5-2 µM.
Series [7] is described as follows: Cytotoxicity against green monkey Vero cells assessed as inhibition of cell growth incubated for 48 hrs by CCK-8 assay. The format is toxicity, cell-based. To be noted: African green monkey (Chlorocebus sabaeus).
Series [8] deals with MDA-MB-231. Briefly: Induction of apoptosis in human MDA-MB-231 cells assessed as decrease in Caspase 3 level by Western blotting analysis. In kind it is functional, cell-based. As to conditions: dose 0.5-2 µM.
For series [9], the target named is T3, Tubulin (Homo sapiens). Briefly: Disruption of microtubule network in human MDA-MB-231 cells assessed as disorganized microtubule network at 1 to 2 uM incubated for 24 hrs by DAPI staining based fluorescence microscopic analysis. As to conditions: dose 1-2 µM. The format is cell-based.
For series [10], the system named is MDA-MB-231. Briefly: Antiproliferative activity against human MDA-MB-231 cells assessed as reduction in cell proliferation incubated for 48 hrs by CCK-8 assay. The format is functional, cell-based. As to conditions: MDA-MB-231, 48 h.
The subject of series [11] is ASPC1. The series can be described thus: Antiproliferative activity against human ASPC1 cells assessed as inhibition of cell growth incubated for 48 hrs by CCK-8 assay. The format is functional, cell-based. As to conditions: ASPC1, 48 h.
Series [12] concerns LoVo. The series can be described thus: Antiproliferative activity against human LoVo cells assessed as inhibition of cell proliferation incubated for 3 days by CCK-8 assay. To be noted: 72 h. The format is functional, cell-based.
The subject of series [13] is MDA-MB-231. Briefly: Induction of ROS generation in human MDA-MB-231 cells assessed as increase in green fluorescence at 2 uM incubated for 24 hrs by DCFH-DA staining based flow cytometric analysis (reference value: 62.3 %). In kind it is functional.
Series [14] deals with MDA-MB-231. Briefly: Induction of morphological changes in human MDA-MB-231 assessed as cell rounding at 0.5 to 2 uM incubated for 48 hrs by microscopic analysis. The format is functional, cell-based. To be noted: dose 0.5-2 µM.
The test system of series [15] is MDA-MB-231. Briefly: Induction of apoptosis in human MDA-MB-231 cells assessed as increase in total apoptotic cells by annexin-V/PI double staining based flow cytometric analysis. In kind it is functional, cell-based. To be noted: dose 0.5-2 µM.
Series [16] has as its system LoVo. Briefly: Antiproliferative activity against human LoVo cells assessed as inhibition of cell growth incubated for 48 hrs by CCK-8 assay. The format is functional, cell-based.
Series [17] concerns the target T3, Tubulin (Homo sapiens). The series can be described thus: Disruption of microtubule network in human MDA-MB-231 cells assessed as punctate fiber structure at 1 to 2 uM incubated for 24 hrs by DAPI staining based fluorescence microscopic analysis. To be noted: dose 1-2 µM. The format is cell-based.
In series [18] the target is T3, Tubulin (Homo sapiens). The series can be described thus: Disruption of microtubule network in human MDA-MB-231 cells assessed as atrophy fiber structure at 1 to 2 uM incubated for 24 hrs by DAPI staining based fluorescence microscopic analysis. As to conditions: dose 1-2 µM. The format is cell-based.
Series [19] concerns MDA-MB-231. Briefly: Induction of cell cycle arrest in human MDA-MB-231 cells assessed as decreased proportion of cells at G1 phase at 0.5 to 2 uM by flow cytometric analysis. In kind it is functional, cell-based. To be noted: dose 0.5-2 µM.
Series [20] concerns MDA-MB-231. The series can be described thus: Induction of apoptosis in human MDA-MB-231 cells assessed as upregulation of cleaved-caspase 3 level by Western blotting analysis. As to conditions: dose 0.5-2 µM. In kind it is functional, cell-based.
For series [21], the system named is MDA-MB-231. The series can be described thus: Induction of ROS generation in human MDA-MB-231 cells assessed as increase in green fluorescence incubated for 24 hrs by DCFH-DA staining based flow cytometric analysis relative to control. The format is functional, cell-based. To be noted: dose 0.5-2 µM.
Series [22] deals with T3, Tubulin (Homo sapiens). The series can be described thus: Disruption of microtubule network in human MDA-MB-231 cells assessed as reduced microtubule network at 1 to 2 uM incubated for 24 hrs by DAPI staining based fluorescence microscopic analysis. As to conditions: dose 1-2 µM. The format is cell-based.
In series [23] the test system is MDA-MB-231. Briefly: Induction of apoptosis in human MDA-MB-231 cells assessed as nuclear shrinkage at 0.5 to 2 uM incubated for 24 hrs by Hoechst 33342 staining based fluorescence microscopic analysis. In kind it is functional, cell-based. To be noted: dose 0.5-2 µM.

Activity calls are given as the source filed them. No cut-off for these calls is given here.

Take `O=C(/C=C/c1cn(S(=O)(=O)c2ccc([N+](=O)[O-])cc2)c2ccc(N3CCOCC3)cc12)c1cccnc1`: the outcome in [1], in series [3], in series [4], in series [9], in series [14] and in [17] was Active. The result in series [18], in series [19], in [22] and in [23] was Active. The half-maximal inhibitory concentration (IC50) in series [2] was found to be 1.56 µM; in series [5], 1.64 µM; in [10], 0.707 µM; in [11] it was 1.11 µM; in series [12], 0.551 µM; in [16], 0.446 µM. Also, the Activity entry in series [6] was “Time-dependent-effect”; in series [8], “Dose-dependent-effect”; in series [13] it was 92.8%; in [15], “Dose-dependent-effect”; in series [20], “Dose-dependent-effect”; in [21], “Dose-dependent-effect”. Moreover, in series [7], the IC50 at 48 h was determined as 2.31 µM.
